# Test results reported in ChEMBL document CHEMBL1201862, “PubChem BioAssay data set” (2004).
#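 Five compound concentrations were applied to cells in 96-well plates for 48 hours; endpoints were derived by simple linear interpolation of the resulting dose-response curve. GI50 marks 50% less growth.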 Activity calls are given as the source filed them. Cut-off read from the data, not from the text of the source: active = GI50 up to about 1.1 µM and inactive = higher.
# Experiments:
# Experiment in all cases: NCI tumour cell line growth inhibition, 48 h
# OVCAR-8 = test system: OVCAR-8
# HOP-62 = test system: HOP-62
# SR = test system: SR
# DMS-114 = test system: DMS-114
# SW-620 = test system: SW-620
# HCC 2998 = test system: HCC 2998
# Malme-3M = test system: Malme-3M
# NCI-H522 = test system: NCI-H522
# NCI-H23 = test system: NCI-H23
# LOX IMVI = test system: LOX IMVI
# OVCAR-4 = test system: OVCAR-4
# CAKI-1 = test system: CAKI-1
# SNB-75 = test system: SNB-75
# SF-268 = test system: SF-268
# HL-60 = test system: HL-60
# A549 = test system: A549
# SK-MEL-2 = test system: SK-MEL-2
# KM-20L2 = test system: KM-20L2
# 786-0 = test system: 786-0
# LXFL 529 = test system: LXFL 529
# DMS-273 = test system: DMS-273
# NCI-H460 = test system: NCI-H460
# OVCAR-3 = test system: OVCAR-3
# SF-539 = test system: SF-539
# HCT-116 = test system: HCT-116
# SNB-78 = test system: SNB-78
# HOP-92 = test system: HOP-92
# KM12 = test system: KM12
# UO-31 = test system: UO-31
# OVCAR-5 = test system: OVCAR-5
# SN12C = test system: SN12C
# SF-295 = test system: SF-295
# UACC-257 = test system: UACC-257
# M14 = test system: M14
# DLD-1 = test system: DLD-1
# HOP-18 = test system: HOP-18
# HT-29 = test system: HT-29
# COLO 205 = test system: COLO 205
# U-251 = test system: U-251
# SNB-19 = test system: SNB-19
# MOLT-4 = test system: MOLT-4
# HCT-15 = test system: HCT-15
# SK-OV-3 = test system: SK-OV-3
# IGROV-1 = test system: IGROV-1
# K562 = test system: K562
# TK-10 = test system: TK-10
# UACC-62 = test system: UACC-62
# RPMI-8226 = test system: RPMI-8226
# SK-MEL-5 = test system: SK-MEL-5
# M19-MEL = test system: M19-MEL
# NCI-H226 = test system: NCI-H226
# CCRF-CEM = test system: CCRF-CEM
# A498 = test system: A498
# ACHN = test system: ACHN
# EKVX = test system: EKVX
# RXF 393 = test system: RXF 393
# SK-MEL-28 = test system: SK-MEL-28
compound,measurement,setting,value
O/N=C(\c1ccccc1)N1CCCCC1,GI50,OVCAR-8,> 100 µM (inactive)
same,GI50,HOP-62,92.3 µM (inactive)
same,GI50,SR,> 100 µM (inactive)
same,GI50,DMS-114,> 100 µM (inactive)
same,GI50,SW-620,> 100 µM (inactive)
same,GI50,HCC 2998,> 100 µM (inactive)
same,GI50,Malme-3M,4.19 µM (inactive)
same,GI50,NCI-H522,> 100 µM (inactive)
same,GI50,NCI-H23,> 100 µM (inactive)
same,GI50,LOX IMVI,> 100 µM (inactive)
same,GI50,OVCAR-4,> 100 µM (inactive)
same,GI50,CAKI-1,> 100 µM (inactive)
same,GI50,SNB-75,82.8 µM (inactive)
same,GI50,SF-268,> 100 µM (inactive)
same,GI50,HL-60,> 100 µM (inactive)
same,GI50,A549,> 100 µM (inactive)
same,GI50,SK-MEL-2,> 100 µM (inactive)
same,GI50,KM-20L2,> 100 µM (inactive)
same,GI50,786-0,> 100 µM (inactive)
same,GI50,LXFL 529,> 100 µM (inactive)
same,GI50,DMS-273,> 100 µM (inactive)
same,GI50,NCI-H460,> 100 µM (inactive)
same,GI50,OVCAR-3,> 100 µM (inactive)
same,GI50,SF-539,> 100 µM (inactive)
same,GI50,HCT-116,> 100 µM (inactive)
same,GI50,SNB-78,> 100 µM (inactive)
same,GI50,HOP-92,> 100 µM (inactive)
same,GI50,KM12,> 100 µM (inactive)
same,GI50,UO-31,66.5 µM (inactive)
same,GI50,OVCAR-5,> 100 µM (inactive)
same,GI50,SN12C,> 100 µM (inactive)
same,GI50,SF-295,> 100 µM (inactive)
same,GI50,UACC-257,> 100 µM (inactive)
same,GI50,M14,> 100 µM (inactive)
same,GI50,DLD-1,> 100 µM (inactive)
same,GI50,HOP-18,< 0.01 µM (active)
same,GI50,HT-29,> 100 µM (inactive)
same,GI50,COLO 205,> 100 µM (inactive)
same,GI50,U-251,> 100 µM (inactive)
same,GI50,SNB-19,> 100 µM (inactive)
O=C(/C=C/c1ccccc1)CC(=O)CCC(=O)Nc1ccc(Cl)cc1,GI50,MOLT-4,> 100 µM (inactive)
same,GI50,HCT-15,> 100 µM
same,GI50,SK-OV-3,> 100 µM (inactive)
same,GI50,IGROV-1,86.1 µM (inactive)
same,GI50,OVCAR-8,> 100 µM (inactive)
same,GI50,K562,5.58 µM (inactive)
same,GI50,HOP-62,29.6 µM (inactive)
same,GI50,TK-10,> 100 µM (inactive)
same,GI50,UACC-62,2.69 µM (inactive)
same,GI50,DMS-114,57 µM (inactive)
same,GI50,SW-620,> 100 µM (inactive)
same,GI50,HCC 2998,80.7 µM (inactive)
same,GI50,Malme-3M,> 100 µM (inactive)
same,GI50,NCI-H522,> 100 µM (inactive)
same,GI50,NCI-H23,> 100 µM (inactive)
same,GI50,LOX IMVI,39.2 µM (inactive)
same,GI50,OVCAR-4,> 100 µM (inactive)
same,GI50,RPMI-8226,> 100 µM (inactive)
same,GI50,CAKI-1,57.8 µM (inactive)
same,GI50,SK-MEL-5,> 100 µM (inactive)
same,GI50,SF-268,60.3 µM (inactive)
same,GI50,HL-60,> 100 µM (inactive)
same,GI50,M19-MEL,71 µM (inactive)
same,GI50,NCI-H226,> 100 µM (inactive)
same,GI50,A549,> 100 µM (inactive)
same,GI50,SK-MEL-2,> 100 µM (inactive)
same,GI50,KM-20L2,9.73 µM (inactive)
same,GI50,CCRF-CEM,> 100 µM (inactive)
same,GI50,786-0,> 100 µM (inactive)
same,GI50,LXFL 529,6.75 µM (inactive)
same,GI50,DMS-273,52.7 µM (inactive)
same,GI50,NCI-H460,55.6 µM (inactive)
same,GI50,OVCAR-3,> 100 µM (inactive)
same,GI50,SF-539,> 100 µM (inactive)
same,GI50,HCT-116,37.8 µM (inactive)
same,GI50,SNB-78,> 100 µM (inactive)
same,GI50,A498,> 100 µM (inactive)
same,GI50,KM12,44.4 µM (inactive)
same,GI50,UO-31,94 µM (inactive)
same,GI50,OVCAR-5,> 100 µM (inactive)
same,GI50,SN12C,> 100 µM (inactive)
same,GI50,SF-295,> 100 µM (inactive)
same,GI50,UACC-257,77.3 µM (inactive)
same,GI50,M14,28.3 µM (inactive)
same,GI50,DLD-1,29.2 µM (inactive)
same,GI50,HOP-18,> 100 µM (inactive)
same,GI50,HT-29,88.9 µM (inactive)
same,GI50,COLO 205,> 100 µM (inactive)
same,GI50,U-251,> 100 µM (inactive)
same,GI50,SNB-19,> 100 µM (inactive)
same,GI50,ACHN,23.6 µM (inactive)
same,GI50,EKVX,> 100 µM (inactive)
Cc1ccc2c(c1)c(=O)c1c(NCCN(C)C)ccc3nnn2c31,GI50,MOLT-4,0.605 µM (active)
same,GI50,HCT-15,4.18 µM
same,GI50,SK-OV-3,3.56 µM (inactive)
same,GI50,IGROV-1,4.33 µM (inactive)
same,GI50,OVCAR-8,2.98 µM (inactive)
same,GI50,K562,2.91 µM (inactive)
same,GI50,HOP-62,3.59 µM (inactive)
same,GI50,SR,1.22 µM (inactive)
same,GI50,TK-10,3.95 µM (inactive)
same,GI50,UACC-62,6.44 µM (inactive)
same,GI50,DMS-114,5.26 µM (inactive)
same,GI50,SW-620,1.57 µM (inactive)
same,GI50,HCC 2998,3.4 µM (inactive)
same,GI50,Malme-3M,3.82 µM (inactive)
same,GI50,NCI-H522,4.81 µM (inactive)
same,GI50,NCI-H23,3.6 µM (inactive)
same,GI50,LOX IMVI,1.9 µM (inactive)
same,GI50,OVCAR-4,3.6 µM (inactive)
same,GI50,RPMI-8226,2.36 µM (inactive)
same,GI50,CAKI-1,2.02 µM (inactive)
same,GI50,SNB-75,4.6 µM (inactive)
same,GI50,SK-MEL-5,3.06 µM (inactive)
same,GI50,SF-268,4.24 µM (inactive)
same,GI50,HL-60,2.1 µM (inactive)
same,GI50,M19-MEL,6.21 µM (inactive)
same,GI50,NCI-H226,3.02 µM (inactive)
same,GI50,A549,2.83 µM (inactive)
same,GI50,SK-MEL-2,8.04 µM (inactive)
same,GI50,KM-20L2,3.03 µM (inactive)
same,GI50,CCRF-CEM,2.21 µM (inactive)
same,GI50,786-0,3.35 µM (inactive)
same,GI50,LXFL 529,3.48 µM (inactive)
same,GI50,NCI-H460,2.67 µM (inactive)
same,GI50,OVCAR-3,5.55 µM (inactive)
same,GI50,SF-539,5.26 µM (inactive)
same,GI50,HCT-116,2.63 µM (inactive)
same,GI50,SNB-78,6.22 µM (inactive)
same,GI50,HOP-92,2.36 µM (inactive)
same,GI50,A498,4.88 µM (inactive)
same,GI50,KM12,2.45 µM (inactive)
same,GI50,UO-31,3.56 µM (inactive)
same,GI50,RXF 393,2.88 µM (inactive)
same,GI50,OVCAR-5,2.59 µM (inactive)
same,GI50,SN12C,3.45 µM (inactive)
same,GI50,SK-MEL-28,5.42 µM (inactive)
same,GI50,SF-295,1.33 µM (inactive)
same,GI50,UACC-257,3.6 µM (inactive)
same,GI50,M14,4.25 µM (inactive)
same,GI50,DLD-1,2.88 µM (inactive)
same,GI50,HOP-18,9.93 µM (inactive)
same,GI50,HT-29,1.47 µM (inactive)
same,GI50,COLO 205,1.9 µM (inactive)
same,GI50,U-251,4.23 µM (inactive)
same,GI50,SNB-19,6.34 µM (inactive)
same,GI50,ACHN,3.06 µM (inactive)
same,GI50,EKVX,3.64 µM (inactive)
